Results reported in patent US20220151995A1, “PHARMACEUTICAL COMPOSITION FOR TREATING CANCER AND SUPPRESSING METASTASIS, CONTAINING SULFONAMIDE-BASED COMPOUND AS ACTIVE INGREDIENT” (EXOSTEMTECH CO., LTD, priority 2015, published 2022).

Legend:
[1] = test system: MDA-MB231-CD63-GFP(+) cells; assay: Exosome (CD63-GFP) secretion screening of FDA-approved drugs, supernatant fluorescence; assay type: cell-based; details: 24 h, fluorescence 485/538 nm, % of control group, read-out: exosome inhibition rate (relative fluorescence, of control group)
Description: Among a total of 1,163 FDA-approved drug libraries, drugs effective in inhibiting exosome secretion of the MDA-MB231 triple negative breast cancer cell line were selected by carrying out screening twice. Sulfisoxazole, Sulfadiazine, Sulfathiazole and Ambrisentan, all of which are ETA receptor antagonists, were selected.
The percentage of inhibition rate of exosome secretion was evaluated for each of the selected ETA receptor antagonists. Briefly, MDA-MB231-CD63-GFP(+) cells were incubated with 30 pM of 1,163 individual FDA-approved drugs for 24 h. The fluorescence of each supernatant was measured at 485 nm (excitation) and 538 nm (emission) using a fluorescence microplate reader. Y-axis indicates the inhibition rate of exosome (CD63-GFP), and X-axis indicates the number of FDA-approved drugs.

[2] = test system: MDA-MB231 cells; assay: Cancer cell proliferation, MTT assay; assay type: cell-based; details: 25, 50, 100 and 200 μM; MTT absorbance at 495 nm; compared with the control
Description: After the 12-hour incubation, the cells were treated with sulfisoxazole and sulfadoxine at 25, 50, 100, and 200µM, and then re-treated with the same drugs […]. Thereafter, the cells were treated with MT tetrazolium reagent for each time, and then incubated for […]. After 4 hours, the cell proliferation effect was investigated by measuring the absorbance at 495 nm of reduced MTT formazan (3-(4,5-dimethylthiazol-2-yl)-2,5-diphenyl-tetrazolium bromide). The docetaxel (10µM), which is an anticancer drug currently in use, was used as a control.

[3] = test system: MDA-MB231 cells; assay: Matrigel invasion assay; assay type: cell-based; details: 25, 50, 100 and 200 μM, 48 hours, compared with the controls
Description: A 8[…] insert was placed in a 24-well plate, coated with serum-free medium and Matrigel, and then solidified at 37 for 4 hours. Then, 800µ1 of 10% FBS was added to the lower chamber and 1×10^4 MDA-MB231 cells were added to the upper chamber, followed by treatment with sulfisoxazole or sulfadoxine at 25, 50, 100, and 200µM. After 48 hours, the Matrigel in the insert was removed, followed by washing with PBS, and then the lower chamber was fixed with 60% ethanol, and then stained with crystal violet.

[4] = test system: MDA-MB231 cells; assay: Cancer cell migration, scratch assay (T-scratch); assay type: cell-based; details: 24 hours, medium containing 2% serum; T-scratch quantification
Description: MDA-MB231 cells were seeded in a 24-well plate at 2×10^5 cells/well, and then incubated for 24 hours for the proliferation to a monolayer. After the incubation for 24 hours, the monolayer was straightly scratched with a yellow tip. The cells were washed with PBS to remove floating cells, and then photographed (0 h). Thereafter, a drug was added to a medium containing 2% serum, and then the cells were treated with the medium, and then incubated for 24 hours (24 h). After 24 hours, the cells were photographed for the same site to compare cell migration. The measurement of cell migration was carried out using T-scratch program.

[5] = test system: A549; assay: Cancer exosome secretion, number of exosomes by Nanosight; assay type: cell-based; details: SFX 100 μM and 200 μM, one day; compared to control (DMSO)
Description: After seeding 2×10^6 cells of A549 in T-flask, they were stabilized with growth medium for 24 hours. To isolate cancer exosomes, T-flask was treated with SFX at different concentrations (0, 100, 200 μM), and then lung cancer cells were cultured for one day. After the cell culture medium was collected and filtered, exosomes were separated through ultracentrifugation, and the number of exosomes was determined with Nanosight (FIG. 11).

[6] = test system: A549 cells; assay: Cancer cell proliferation, WST-1 assay; assay type: cell-based; details: 100 μM and 200 μM daily, 72 hours; compared to control (DMSO)
Description: A549 cells were seeded in a 12-well plate at a concentration of 3×10^4 cells/well and then stabilized with growth medium for 24 hours. To evaluate cancer cell growth inhibition, SFX was treated daily at different concentrations (0, 100, 200 μM). After 72 hours, cell growth rate was determined by WST-1 assay (FIG. 13).

[7] = test system: LLC1 tumor cells
Description: The cancer animal models were prepared on the last day acclimatization. C57BL/6 mice used for the production of LLC1 tumor mouse model were used as experimental animals, and after inoculation of LLC1 tumor cells in the mouse thigh at a concentration of 5×10^5 cells/head, SFX was administered from the time when the tumor volume reached 50 mm^3.
After uniformly mixing the SFX solution prepared for each concentration by vortexing, a sonde for mice was connected to a 1 mL syringe to fill the solution, and 100 μL of the solution was orally administered to each mouse in each group.
Tumor volume was measured daily. The volume of the tumor was measured using a vernier caliper on the major axis and the minor axis, and the height was calculated as ½ the size of the minor axis.
[Tumor volume (mm3)=major axis (mm)×minor axis (mm)×½ of the minor axis]
Mouse body weight was measured every other day from the start of the test, and was measured after oral administration of the drug.

Row | SMILES | activity at 30 pM [1] [%] | proliferation of MDA-MB231 cell lines [2] | invasion of cancer cells [3] | migration of cancer cells [4] | other results
1 | COC(c1ccccc1)(c1ccccc1)[C@H](Oc1nc(C)cc(C)n1)C(=O)O [ambrisentan, Ambrisentan] | 101 | – | – | – | –
2 | Nc1ccc(S(=O)(=O)Nc2ncccn2)cc1 [sulfadiazine, Sulfadiazine] | 89.9 | – | – | – | –
3 | COc1ncnc(NS(=O)(=O)c2ccc(N)cc2)c1OC [sulfadoxine] | – | significantly inhibited | significantly inhibited | inhibited dependent on the concentration | –
4 | Nc1ccc(S(=O)(=O)Nc2nccs2)cc1 [sulfathiazole, Sulfathiazole] | 93.8 | – | – | – | –
5 | Cc1noc(NS(=O)(=O)c2ccc(N)cc2)c1C [sulfisoxazole] | 60.8 | inhibited dependent on the concentration | significantly inhibited | inhibited dependent on the concentration | level of cancer exosome secretion [5]: significantly reduced; A549 cell growth [6]: inhibited in a concentration-dependent manner; tumor weight ([7]; 200 and 400 mg/kg orally, end of the experiment, compared to vehicle group): tendency to decrease; mice that died (survival) ([7]; oral SFX administration for each concentration): no mice that died; body weight of the animals ([7]; oral SFX administration, measured every other day): did not show a significant change
